Source: US6258845A (priority 1999, dated 2001)
pIC50: −log10 of the molar value. “Also recorded” adds a separate entry of the source. Like-named read-outs stand apart in the source and are kept apart here.

How the values were obtained:
[1] = system: Caco-2 parental cells, Ki-ras clone #60 and Ki-ras clone #66; assay: Viable cell number (trypan blue dye exclusion), growth of Caco-2 parental and Ki-ras transfected cells; type: cell-based, human; details: 5 mM DFMO continuously, short-term growth
Description: Effect of sulindac sulfide and sulfone on the growth of Ki-ras transfected cells. […] Viable cell number was determined by trypan blue dye exclusion.
Caco-2 cells were maintained in Modified Eagle Media (GIBCO, Grand Island, N.Y.) supplemented with 10% fetal bovine serum and a 1% penicillin (10,000 units/ml)-streptomycin (10,000 mg/ml) solution (GIBCO, Grand Island, N.Y.). Transfected Caco-2 cells resistant to neomycin were maintained in 400 μg/ml G418. Cells were maintained at 37° in the presence of 5% CO2 in air.
All cells were passed into new medium every two to three days, just prior to confluence. Drug additions were performed at the time of cell seeding and in MEM for each cell line unless otherwise noted. […] The two metabolites of sulindac, sulindac sulfone and sulfide, were obtained from Cell Pathways, Inc. (Horsham Pa.).
Caco-2 cells were removed from the monolayer by treatment with trypsin (1500 units/ml, Calbiochem, San Diego, Calif.)-EDTA (.7mM) and counted using a hemocytometer. A sample of the cell suspension was combined in a 1:1 volume ratio with trypan blue dye (GIBCO, Grand Island, N.Y.), and at least two independently prepared suspensions were counted on a hemocytometer, two counts each. For all cell types, viability was determined by the percentage of cells able to exclude the trypan blue dye.

Caco-2 parental cells [2] = assay: Induction of apoptosis (light microscopy) in Caco-2 parental cells; type: cell-based, human; details: 5 mM DFMO, with or without sulindac sulfone (so in the source); parental Caco-2
Description: (§1) FIG. 3. […] Apoptosis was determined by light microscopy.
(§2) FIG. 8. […] Cells were grown over a period of 6 days. Cells were harvested at various days (0, 2, 4 and 6 days), spun onto slides and stained. Apoptosis was determined by light microscopy. Percentage of apoptotic cells was calculated as the number of apoptotic cells out of the total cells counted times 100. At least 500 cells were counted for each sample.
(§3) Cells were grown over a period of 6 days. Cells were harvested at various days (0, 2, 4 and 6 days), spun onto slides and stained. Apoptosis was determined by light microscopy. Percentage of apoptotic cells was calculated as the number of apoptotic cells out of the total cells counted times 100.

Ki-ras clone #60 = assay: Induction of apoptosis (light microscopy) in Ki-ras clone 60; type: cell-based, human; details: day 6, 5 mM DFMO, with or without sulindac sulfone (so in the source)
Description: as §1, §2, §3

Ki-ras clone #60 cells = assay: Clonogenic assay (colony-forming efficiency), Ki-ras clone 60; type: cell-based, human; details: Homo sapiens, Caco-2, 24 h; read-out: decrease in cell survival compared to untreated transfectants
[3] = system: colorectal tissue polyamine contents
Description: All biopsies were performed between 9:00 a.m. and noon to avoid possible effects of diurnal variation in laboratory endpoints.

polyamine levels = type: in vivo, human
Source text: Based on this information a dose of 0.2 Gm/M^2 /day will be used for the current trial.

[4] = system: tissue polyamine contents (Barrett's lesion, normal squamous esophagus, gastric tissue, small bowel); assay: DFMO in Barrett's esophagus patients, tissue polyamine contents; type: in vivo, human; details: 1.5 gm/m^2 per day, 12 weeks
Source text: ODC activities and polyamine contents varied in each site analyzed. The rank orders were Barrett's>small bowel~normal esophagus>gastric tissue for ODC activities, and small bowel≥Barrett's~normal esophagus>gastric tissue for putrescine contents.

[5] = system: ODC and polyamine contents; assay: DFMO effect on colorectal and buccal mucosa ODC and polyamine contents; type: in vivo, human
Source text: When the inventors started these studies, their hope was that the effects of polyamine syntheses inhibitors in easily accessible tissues, such as buccal mucosa in the oral cavity, would be representative of inhibitor effects in less accessible tissue of the gastrointestinal tract. To test this hypothesis, the inventors measured ODC activity and polyamine contents in buccal mucosa isolated from normal human volunteers. […] From these studies, the inventors concluded that the buccal mucosal was not a useful surrogate tissue in which to measure the effects of polyamine synthesis inhibitor on other GI tissues.

Caco-2 parental cells [6] = details: long-term survival, Caco-2 cells
[7] = human, in vivo
Caco-2 parental cells [8] = assay: cells; details: Homo sapiens, Caco-2, 24 h, read-out: cell survival
Ki-ras clones 60 and 66 = assay: cells; details: Homo sapiens
[9] = system: tumors harboring Ki-ras mutations in AOM-treated rats; details: cited from earlier work
[10] = system: carcinogenesis in rodent/animal models; details: in vivo; cited from earlier work
hearing [11] = details: cited from earlier work
tumor putrescine levels = details: DFMO infusion, cited from earlier work
platelet counts = details: continuous infusion for 12 days; cited from earlier work
MCA sarcoma = details: in vivo; cited from earlier work
[12] = system: ornithine decarboxylase (ODC); details: cited from earlier work
[13] = system: intracellular putrescine and spermidine; details: cited from earlier work
human cancer = details: cited from earlier work
hearing [14] = assay: DFMO effects on hearing / ototoxicity in patients; details: 0.25 g/m^2 /d
[15] = system: AOM-treated rat model of colon carcinogenesis; details: in vivo; cited from earlier work
[16] = cited from earlier work
[17] = system: colorectal adenomas/polyps; details: cited from earlier work
[18] = sulindac 400 mg per day; cited from earlier work
COX (cyclooxygenase) = details: cited from earlier work
[19] = cited from earlier work; remark: listed apart in the source
[20] = system: colorectal adenomas/polyps; assay: Sulindac effect on colorectal adenomas/polyps in patients; details: randomized phase IIb
[21] = system: AOM-treated rat model of colon carcinogenesis; assay: Colon carcinogenesis in the AOM-treated rat / rodent model; details: sulfoxide and sulfone forms
[22] = listed as α-Difluoromethylornithine (DFMO)

Q: With `NCCCC(N)(C(=O)O)C(F)F` (racemic) [DFMO, 2(Difluoromethyl)-DL-ornithine] as the compound, how does the “trypan blue dye exclusion” value [1] read?
A: exclusion of trypan blue dye in either the Ki-ras cells or parentals was unaffected

Q: And the increase in apoptosis (Caco-2 parental cells [2])?
A: only a modest increase in apoptosis

Q: What about the “percentage of apoptotic cells” value (Ki-ras clone #60) of the same compound?
A: 15%

Q: What about the cytotoxicity at 5000 µM (Ki-ras clone #60 cells) of the same compound?
A: 60%

Q: And the “lowest dose safe and effective in reducing colorectal mucosal polyamine contents” value ([3]; daily orally, 28 days)?
A: 0.25 gm/m^2

Q: What about the “lowest dose with evident effects on polyamine metabolism” value ([3]; phase IIa, one month) of the same compound?
A: 0.2 Gm/M^2 /day

Q: What about the “lowest dose decreasing putrescine content” value ([3]; single daily oral doses, 4 wk, colorectal biopsies) of the same compound?
A: 0.25 gm/m^2

Q: What about the “lowest dose that may produce a persistent effect on polyamine levels” value (polyamine levels; 12 months) of the same compound?
A: 0.10 Gm/M^2 /day

Q: What about the audiotoxicity (polyamine levels; in vivo) of the same compound?
A: no audiotoxicity was evident

Q: And the “patients coming off study” value (polyamine levels; in vivo)?
A: came off study more frequently

Q: And the “side-effects after one year” value (polyamine levels; in vivo)?
A: equivalent to placebo

Q: What about the spermidine contents ([4]; Barrett's lesions and normal squamous esophageal tissue) of the same compound?
A: suppressed by systemic DFMO treatment and recovered to untreated control values when DFMO therapy was discontinued

Q: And the “spermidine and spermine levels” value ([4]; gastric tissue and small bowel)?
A: did not affect the levels of either of these two amines in gastric tissue and small bowel

Q: And the “buccal mucosal ODC and polyamine contents” value ([5]; buccal mucosa)?
A: unaffected

Q: And the “polyamine contents in colorectal tissue biopsies” value ([5]; colorectal tissue)?
A: reduced polyamine contents in colorectal tissue biopsies

Q: What about the “effect of DFMO on toxicity of the sulindac metabolites” value (Caco-2 parental cells [6]) of the same compound?
A: did not increase the toxicity of the sulindac metabolites in long-term survival studies

Q: And the wound healing problems [7]?
A: problems with wound healing have not been experienced

Q: And the viability at 5000 µM (Caco-2 parental cells [8])?
A: ~100%

Q: And the pIC50 (Ki-ras clones 60 and 66; 24 h, read-out: concentration at 50% cell survival)?
A: 3.30

Q: And the minimal effective concentration (Ki-ras clones 60 and 66; 24 h, read-out: lowest concentration (selectively) toxic to cells with an activated Ki-ras)?
A: 50 µM

Q: And the viability at 5000 µM (Ki-ras clones 60 and 66; Caco-2, 24 h, read-out: cell survival, of controls)?
A: 20 to 40%

Q: What about the inhibition at 5000 µM (Ki-ras clones 60 and 66; Caco-2, 24 h, read-out: reduction of colony-forming efficiency of the Ki-ras transfectants) of the same compound?
A: 40%

Q: What about the “amount of biochemically active p21 ras in existing tumors” value [9] of the same compound?
A: reduced the amount of biochemically active p21 ras in existing tumors

Q: What about the “tumors harboring Ki-ras mutations” value ([9]; reduced from 90%) of the same compound?
A: 36%

Q: What about the “chemoprevention / inhibition of tumor development in animal models” value [10] of the same compound?
A: potent inhibitor of carcinogenesis; also recorded: inhibits the development of many cancers including carcinogen-induced colon polyps and cancer; also recorded: inhibits colon carcinogenesis in carcinogen-treated rodents

Q: What about the effects on hearing (hearing [11]; 0.4gr/M^2 /day for up to one year) of the same compound?
A: not observed

Q: And the audiometric changes (hearing [11]; about 6 months at 0.50 g/m^2 /d (total dose 90 gm))?
A: no audiometric changes

Q: And the “patients with hearing losses” value (hearing [11]; cumulative doses above 250 g/m^2)?
A: up to 75 % of patients

Q: And the “patients with demonstrable hearing deficit” value (hearing [11]; cumulative doses below 150 g/m^2)?
A: less than 10 % of the patients

Q: What about the “effects on hearing / hearing loss, reversibility” value (hearing [11]; other clinical trials) of the same compound?
A: hearing loss, which was reversible after the drug treatment was discontinued; also recorded: totally reversible upon drug discontinuation; also recorded: effects on hearing at high doses of 4 gr/M^2 /day that resolve when it is discontinued

Q: And the “decrease in tumor putrescine levels” value (tumor putrescine levels; rat-tumor model)?
A: 90%

Q: What about the peripheral platelet counts (tumor putrescine levels) of the same compound?
A: without suppressing peripheral platelet counts

Q: And the platelet counts (platelet counts)?
A: significantly reduces platelet counts compared with controls

Q: And the “growth of MCA sarcoma” value (MCA sarcoma)?
A: reduces the growth rate of an MCA sarcoma but does not produce tumor regression

Q: What about the “inhibition of ODC” value [12] of the same compound?
A: powerful inhibitor of ODC, both in vitro and in vivo

Q: What about the “inhibition of ODC” value [12, 22] of the same compound?
A: enzyme-activated, irreversible inhibitor of ornithine decarboxylase (ODC)

Q: What about the “uptake of exogenous putrescine” value ([13]; cells treated in vivo) of the same compound?
A: significantly increase their uptake of exogenous putrescine

Q: And the intracellular polyamine concentrations [13]?
A: decrease in putrescine and spermidine concentrations

Q: And the intracellular polyamine concentrations [13, 22]?
A: depletion in the intracellular concentrations of putrescine and its derivative, spermidine

Q: What about the “activity in chemotherapy trials” value (human cancer; human cancer) of the same compound?
A: not to be an active cytotoxic agent

Q: What about the “activity in malignant brain tumors” value (human cancer; malignant brain tumors) of the same compound?
A: moderate activity

Q: What about the “expected onset of hearing loss” value (hearing [14]) of the same compound?
A: > 800 days

Q: For `CC1=C(CC(=O)O)c2cc(F)ccc2/C1=C\c1ccc([S+](C)[O-])cc1` (stereo not drawn) [sulindac, (Z)-5-Fluoro-2-methyl-1-((4 (methylsulfinyl)phenyl)methylene) 1H-indene-3-acetic acid], which “Ki-ras mutation / tumors harboring an activated Ki-ras” value [9] is on record?
A: reduces the number of tumors harboring an activated Ki-ras

Q: And the “apoptosis in AOM-treated rodent model” value [15]?
A: cause apoptosis

Q: And the “inhibition of colon carcinogenesis in AOM-treated rat model” value [15]?
A: effectively inhibit colon carcinogenesis

Q: And the “time of peak plasma levels” value ([16]; fasting patients)?
A: about 2 hours

Q: What about the half-life ([16]; human, in vivo, po) of the same compound?
A: 7 h

Q: And the mean half-life ([16]; human, in vivo, po)?
A: 7.8 h

Q: What about the absorption of drug ([16]; oral administration) of the same compound?
A: about 90%

Q: And the “regression of adenomas in FAP patients” value ([17]; FAP patients)?
A: regression of adenomas

Q: What about the “clinical regression of polyps” value ([17]; several studies) of the same compound?
A: can cause clinical regression of polyps

Q: And the “effect on sporadic adenomas” value ([17]; sporadic adenomas)?
A: no such effect

Q: And the “analgesic and antiinflamatory effects” value [18]?
A: comparable to those achieved by aspirin (4 g per day), ibuprofin (1200 mg per day), indomethacin (125 mg per day), and phenylbutazone (400 to 600 mg per day)

Q: What about the “COX / prostaglandin synthesis inhibition” value (COX (cyclooxygenase)) of the same compound?
A: inhibit cycloxygenase and prostaglandin synthesis

Q: And the “borderline elevations in one or more liver function test” value ([19]; human, in vivo)?
A: 15 % of clinical trial patients

Q: And the “gastrointestinal toxicity / ulceration” value ([19]; human, in vivo)?
A: serious gastrointestinal toxicity such as bleeding, ulceration, and perforation

Q: What about the “meaningful elevations in liver function test (3 times upper limit of normal)” value ([19]; human, in vivo) of the same compound?
A: less than 1%

Q: And the mild gastrointestinal effects ([19]; human, in vivo)?
A: ~20 % of patients

Q: What about the “skin rash and pruritus” value ([19]; human, in vivo) of the same compound?
A: 5 % of patients

Q: What about the “gastrointestinal toxicity / ulceration” value ([19]; human, in vivo, listed as Sulindac) of the same compound?
A: G.I. ulceration that in general is dose-related; also recorded: can produce gastric irritation and bleeding

Q: What about the “granulocytosis, aplastic anemia, hemolytic anemia” value ([19]; rare adverse effects) of the same compound?
A: less than 1%

Q: What about the gastrointestinal pain ([19]; therapeutic doses) of the same compound?
A: 10%

Q: And the “150 mg per day vs. twice per day” value [20]?
A: comparable results

Q: And the “safety in phase IIb study” value [20]?
A: safe

Q: And the “polyp regression and development of new polyps” value ([20]; 150 mg per day or twice per day)?
A: regression of extant polyps shown

Q: And the “inhibition of carcinogenesis in the AOM-treated rat” value [21]?
A: inhibit carcinogenesis in the AOM-treated rat, with similar potencies
